Laboratory results as given in patent publication US12364261B2, “Liquid sulfonylurea- and Li-salt containing herbicidal compositions” (priority 2016, dated 2025).
Read-outs that look alike come from different tables or passages of the source.

Tests used:
[1] = chemical stability of active ingredient in liquid formulation after storage at 54° C. for two weeks (HPLC, relative to −10° C. control); format: physicochemical
Procedure: Chemical stability can be determined as a percentage of the sulfonyl urea remaining (e.g. as determined by HPLC) when the liquid composition (e.g. a 50 ml sample of the liquid composition in a 60 ml hermetically sealed Winchester bottle) has been stored at 54° C. for two weeks relative to a corresponding control sample that has been stored at −10° C. for two weeks.
Sulfonylurea was added to a solvent in an amount of 25 wt. %. The mixture was placed in a mill (Eiger Torrance Mini Mill) containing glass beads (1.0-1.25 mm). The suspension was then milled to provide a 25 wt. % sulfonylurea millbase having a particle size (D50) between 2 and 3 μm.
Lithium salt was added to solvent in an amount of 25 wt. % and milled as described above to provide a 25 wt. % lithium salt millbase having a particle size (D50) between 2 and 3 μm.
An appropriate amount of the milled concentrate of sulfonylurea (i) was blended with solvent (optionally containing surfactant) until homogenous, and then further blended with milled concentrate of lithium salt (ii) until homogenous, resulting in the oil dispersions as described in the tables below.
The liquid formulations were stored in tightly closed glass bottles in thermostatically controlled incubators at 54° C. for two weeks with control samples stored at −10° C. After storage, all formulations were analysed for active ingredient content(s) by HPLC. Stability is reported with respect to the amount of active ingredient remaining relative to a corresponding sample stored at −10° C. for two weeks.

[2] = one week of storage at 40° C.; WO 2007/027863 A2; cited from earlier work
[3] = after 5 days, depending on the selected solvent; U.S. Pat. No. 5,731,264; cited from earlier work
[4] = in the presence of lithium acetate

Row | Compound | chemical stability in the presence of lithium acetate [1, 4] | further results
1 | CCOC(=O)c1cnn(C)c1S(=O)(=O)NC(=O)Nc1nc(OC)cc(OC)n1 [pyrazosulfuron-ethyl, ethyl 5-[[[[(4,6-dimethoxy-2-pyrimidinyl)amino]carbonyl]amino]sulfonyl]-1-methyl-1H-pyrazole-4-carboxylate] | excellent chemical stability | 
2 | COc1cc(OC)nc(NC(=O)NS(=O)(=O)N(C)S(C)(=O)=O)n1 [amidosulfuron, N-[[[[(4,6-dimethoxy-2-pyrimdinyl)amino]carbonyl]amino]sulfonyl]-N-methylmethanesulfonamide] | excellent chemical stability | 
3 | COC(=O)c1c(Cl)nn(C)c1S(=O)(=O)NC(=O)Nc1nc(OC)cc(OC)n1 [halosulfuron-methyl, methyl 3-chloro-5-[[[[(4,6-dimethoxy-2-pyrimidinyl)amino]carbonyl]amino]sulfonyl]-1-methyl-1H-pyrazole-4-carboxylate] | excellent chemical stability | 
4 | COC(=O)c1ccccc1S(=O)(=O)NC(=O)N(C)c1nc(C)nc(OC)n1 [tribenuron-methyl, methyl 2-[[[[N-(4-methoxy-6-methyl-1,3,5-triazin-2-yl)-N-methylamino]carbonyl]amino]-sulfonyl]benzoate] |  | tribenuron-methyl lost [2]: up to 66.5%
5 | COC(=O)c1ccccc1S(=O)(=O)NC(=O)Nc1nc(C)nc(OC)n1 [metsulfuron-methyl, methyl 2-[[[[(4-methoxy-6-methyl-1,3,5-triazin-2-yl)amino]carbonyl]amino]sulfonyl]benzoate] |  | metsulfuron methyl lost [3]: 25-30%; chemical stability in the presence of lithium acetate [1]: excellent chemical stability
6 | COC(=O)c1ccc(I)cc1S(=O)(=O)NC(=O)Nc1nc(C)nc(OC)n1 [iodosulfuron-methyl, methyl 4-iodo-2-[[[[(4-methoxy-6-methyl-1,3,5-triazin-2-yl)amino]carbonyl]amino]sulfonyl]benzoate] | excellent chemical stability | chemical stability in the presence of lithium salts ([1]; in the presence of lithium acetate, formate, benzoate, octanoate, salicylate, citrate, carbonate, phosphate, chloride and sulphate): excellent chemical stability
